Assay results published in PubChem BioAssay AID248 (DTP/NCI, 2004).
Where “and” joins values, the source holds several entries; their conditions need not be identical. Equal values may be shown once. Toxic doses and inconclusive results are not listed.

System: L1210 leukemia ip in BDF1 mice, survival T/C
Experiment: NCI In Vivo Anticancer Drug Screen. Data for tumor model L1210 Leukemia (intraperitoneal) in B6D2F1 (BDF1) mice
Settings: endpoint: mean survival time, higher = longer survival
How it was run: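 Transplantable tumor model; survival measured in treated vs vehicle control mice. Value = treated/control.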

[1] = dose: 100.0 mg/kg/injection, schedule: Q04DX003 (ip), vehicle: saline with Tween-80
[2] = dose: 100.0 mg/kg/injection, schedule: Q01DX009 (ip), vehicle: Klucel (hydroxypropylcellulose) (HPC)
[3] = dose: 200.0 mg/kg/injection, schedule: Q01DX009 (ip), vehicle: Klucel (hydroxypropylcellulose) (HPC)
[4] = dose: 400.0 mg/kg/injection, schedule: Q01DX009 (ip), vehicle: Klucel (hydroxypropylcellulose) (HPC)
[5] = dose: 100.0 mg/kg/injection, schedule: Q04DX003 (ip), vehicle: saline
[6] = dose: 200.0 mg/kg/injection, schedule: Q04DX003 (ip), vehicle: saline
[7] = dose: 400.0 mg/kg/injection, schedule: Q04DX003 (ip), vehicle: saline
[8] = dose: 100.0 mg/kg/injection, schedule: Q01DX001 (ip), vehicle: saline
[9] = dose: 200.0 mg/kg/injection, schedule: Q01DX001 (ip), vehicle: saline

CCOC(C)C(/C=N/NC(N)=S)=NNC(N)=S (stereo not given)
T/C (dose: 15.0 mg/kg/injection, schedule: Q01DX010 (ip), vehicle: saline): 95 % of control | T/C (dose: 15.0 mg/kg/injection, schedule: Q01DX Z (ip), vehicle: carboxymethylcellulose (CMC)): 101 % of control | T/C (dose: 30.0 mg/kg/injection, schedule: Q01DX010 (ip), vehicle: saline): 89 % of control | T/C (dose: 30.0 mg/kg/injection, schedule: Q01DX Z (ip), vehicle: carboxymethylcellulose (CMC)): 95 % of control | T/C (dose: 60.0 mg/kg/injection, schedule: Q01DX010 (ip), vehicle: saline): 92 % of control | T/C (dose: 60.0 mg/kg/injection, schedule: Q01DX Z (ip), vehicle: carboxymethylcellulose (CMC)): 100 % of control and 102 % of control | T/C (dose: 60.0 mg/kg/injection, schedule: Q01DX Z (oral), vehicle: carboxymethylcellulose (CMC)): 100 % of control | T/C (dose: 120.0 mg/kg/injection, schedule: Q01DX Z (ip), vehicle: carboxymethylcellulose (CMC)): 93 % of control and 103 % of control | T/C (dose: 120.0 mg/kg/injection, schedule: Q01DX Z (oral), vehicle: carboxymethylcellulose (CMC)): 106 % of control | T/C (dose: 240.0 mg/kg/injection, schedule: Q01DX Z (oral), vehicle: carboxymethylcellulose (CMC)): 93 % of control

C1CCN2CC3CC(CN4CCCCC34)C2C1 (stereo not given)
T/C (dose: 10.0 mg/kg/injection, schedule: Q01DX009 (ip), vehicle: saline): 104 % of control | T/C (dose: 20.0 mg/kg/injection, schedule: Q01DX009 (ip), vehicle: saline): 102 % of control | T/C (dose: 20.0 mg/kg/injection, schedule: Q04DX003 (ip), vehicle: saline): 100 % of control | T/C (dose: 40.0 mg/kg/injection, schedule: Q01DX009 (ip), vehicle: saline): 100 % of control | T/C (dose: 40.0 mg/kg/injection, schedule: Q04DX003 (ip), vehicle: saline): 96 % of control

CCOC1OCN(C(C)C)CC1(C)C (stereo not given)
T/C (dose: 75.0 mg/kg/injection, schedule: Q01DX009 (ip), vehicle: saline): 110 % of control | T/C (dose: 150.0 mg/kg/injection, schedule: Q01DX009 (ip), vehicle: saline): 119 % of control

c1ccc([P+](CCN2CCC([P+](c3ccccc3)(c3ccccc3)c3ccccc3)=N2)(c2ccccc2)c2ccccc2)cc1
T/C (dose: 1.56 mg/kg/injection, schedule: Q04DX003 (ip), vehicle: saline): 103 % of control | T/C (dose: 3.12 mg/kg/injection, schedule: Q04DX003 (ip), vehicle: saline): 105 % of control

O=C(/C=C/c1c(Cl)cccc1Cl)c1ccc(Cl)cc1
T/C (dose: 100.0 mg/kg/injection, schedule: Q01DX009 (ip), vehicle: saline with Tween-80): 98 % of control | T/C [1]: 90 % of control | T/C (dose: 200.0 mg/kg/injection, schedule: Q01DX009 (ip), vehicle: saline with Tween-80): 95 % of control | T/C (dose: 200.0 mg/kg/injection, schedule: Q04DX003 (ip), vehicle: saline with Tween-80): 90 % of control | T/C (dose: 400.0 mg/kg/injection, schedule: Q01DX009 (ip), vehicle: saline with Tween-80): 90 % of control | T/C (dose: 400.0 mg/kg/injection, schedule: Q04DX003 (ip), vehicle: saline with Tween-80): 91 % of control

Cc1ccc(Cl)cc1NC(=O)C(c1ccccc1)c1ccccc1
T/C [2]: 95 % of control | T/C (dose: 100.0 mg/kg/injection, schedule: Q04DX003 (ip), vehicle: Klucel (hydroxypropylcellulose) (HPC)): 90 % of control | T/C [3]: 94 % of control | T/C (dose: 200.0 mg/kg/injection, schedule: Q04DX003 (ip), vehicle: Klucel (hydroxypropylcellulose) (HPC)): 96 % of control | T/C [4]: 95 % of control | T/C (dose: 400.0 mg/kg/injection, schedule: Q04DX003 (ip), vehicle: Klucel (hydroxypropylcellulose) (HPC)): 88 % of control

S=C(Sc1nc2ccccc2s1)Sc1nc2ccccc2s1
T/C (dose: 100.0 mg/kg/injection, schedule: Q04DX002 (ip), vehicle: Klucel (hydroxypropylcellulose) (HPC)): 105 % of control | T/C (dose: 200.0 mg/kg/injection, schedule: Q04DX002 (ip), vehicle: Klucel (hydroxypropylcellulose) (HPC)): 94 % of control | T/C (dose: 400.0 mg/kg/injection, schedule: Q04DX002 (ip), vehicle: Klucel (hydroxypropylcellulose) (HPC)): 101 % of control

COc1cc(Cl)ccc1NC(=O)Oc1ccc(-c2ccccc2)cc1
T/C [2]: 116 % of control | T/C [3]: 94 % of control | T/C [4]: 92 % of control

CCOc1ccc2nc(Cl)sc2c1
T/C (dose: 50.0 mg/kg/injection, schedule: Q01DX009 (ip), vehicle: Klucel (hydroxypropylcellulose) (HPC)): 92 % of control | T/C (dose: 75.0 mg/kg/injection, schedule: Q04DX003 (ip), vehicle: Klucel (hydroxypropylcellulose) (HPC)): 93 % of control | T/C [2]: 94 % of control | T/C (dose: 150.0 mg/kg/injection, schedule: Q04DX003 (ip), vehicle: Klucel (hydroxypropylcellulose) (HPC)): 96 % of control

Cn1c2ccccc2c2nn3cnnc3nc21
T/C (dose: 100.0 mg/kg/injection, schedule: Q04DX002 (ip), vehicle: saline with Tween-80): 108 % of control | T/C (dose: 200.0 mg/kg/injection, schedule: Q04DX002 (ip), vehicle: saline with Tween-80): 120 % of control

CC1(CCCOc2ccccc2C(=O)NCBr)N=C(N)N=C(N)N1c1ccccc1 (stereo not given)
T/C (dose: 100.0 mg/kg/injection, schedule: Q01DX001 (ip), vehicle: Klucel (hydroxypropylcellulose) (HPC)): 104 % of control

NCCCNCC1C(c2ccccc2)C1c1ccccc1 (stereo not given)
T/C (dose: 25.0 mg/kg/injection, schedule: Q04DX002 (ip), vehicle: Klucel (hydroxypropylcellulose) (HPC)): 100 % of control | T/C (dose: 50.0 mg/kg/injection, schedule: Q04DX002 (ip), vehicle: Klucel (hydroxypropylcellulose) (HPC)): 114 % of control

CN(C)c1ccc(/C=C2\CC/C(=C\c3ccc(N(C)C)cc3)C2=O)cc1
T/C [2]: 105 % of control | T/C [3]: 97 % of control | T/C [4]: 89 % of control

CCCCCCCCCCCC(=O)[O][Pb]([CH2]C)([CH2]C)[CH2]C
T/C (dose: 6.25 mg/kg/injection, schedule: Q04DX003 (ip), vehicle: saline with Tween-80): 101 % of control | T/C (dose: 12.5 mg/kg/injection, schedule: Q04DX003 (ip), vehicle: saline with Tween-80): 102 % of control | T/C [1]: 106 % of control

CCOC(=O)N1Cc2cc3cc4c(cc3nc2C1)OCO4
T/C [5]: 94 % of control | T/C [6]: 94 % of control | T/C [7]: 96 % of control

CC(=O)OCC(=O)C12OC1CC1C3CCC4CC(O)CCC4(C)C3CC(=O)C12C (stereo not given)
T/C (dose: 6.0 mg/kg/injection, schedule: Q04DX002 (ip), vehicle: other): 91 % of control | T/C (dose: 12.5 mg/kg/injection, schedule: Q04DX002 (ip), vehicle: other): 106 % of control | T/C (dose: 25.0 mg/kg/injection, schedule: Q04DX002 (ip), vehicle: other): 98 % of control | T/C (dose: 50.0 mg/kg/injection, schedule: Q04DX002 (ip), vehicle: other): 98 % of control

N=C(N)c1ccc(NC(=O)c2ccc(C(=O)Nc3ccc(C(=N)N)cc3)c(N)c2)cc1
T/C (dose: 62.0 mg/kg/injection, schedule: Q01DX Z (ip), vehicle: carboxymethylcellulose (CMC)): 106 % of control | T/C (dose: 125.0 mg/kg/injection, schedule: Q01DX Z (ip), vehicle: carboxymethylcellulose (CMC)): 118 % of control | T/C (dose: 500.0 mg/kg/injection, schedule: Q01DX Z (ip), vehicle: carboxymethylcellulose (CMC)): 113 % of control

Cc1cccc2c(C(=O)O)cc(-c3ccc(Cl)cc3)nc12
T/C (dose: 50.0 mg/kg/injection, schedule: Q01DX009 (ip), vehicle: saline with Tween-80): 91 % of control

COc1cccc2c1C(=O)c1c(O)c3c(c(O)c1C2=O)C[C@@](O)(C(=O)COC(=O)c1ccccc1)C[C@@H]3OC1CC(N)C(O)C(C)O1 (stereo not given in full)
T/C (dose: 0.5 mg/kg/injection, schedule: Q04DX003 (ip), vehicle: Klucel (hydroxypropylcellulose) (HPC)): 117 % of control | T/C (dose: 0.8 mg/kg/injection, schedule: Q04DX003 (ip), vehicle: Klucel (hydroxypropylcellulose) (HPC)): 118 % of control | T/C (dose: 4.4 mg/kg/injection, schedule: Q04DX003 (ip), vehicle: Klucel (hydroxypropylcellulose) (HPC)): 152 % of control | T/C (dose: 6.8 mg/kg/injection, schedule: Q04DX003 (ip), vehicle: Klucel (hydroxypropylcellulose) (HPC)): 165 % of control | T/C (dose: 10.0 mg/kg/injection, schedule: Q04DX003 (ip), vehicle: Klucel (hydroxypropylcellulose) (HPC)): 172 % of control

Cc1c(C#N)c2ccccc2c2ccccc12
T/C [5]: 103 % of control | T/C [6]: 103 % of control | T/C [7]: 95 % of control

CC1(C(N)=O)OCCO1
T/C [5]: 103 % of control | T/C [6]: 96 % of control | T/C [7]: 100 % of control

CC(=O)OCCN1CCN(CCOC(C)=O)CC1
T/C [8]: 96 % of control | T/C [9]: 102 % of control | T/C (dose: 400.0 mg/kg/injection, schedule: Q01DX001 (ip), vehicle: saline): 94 % of control

CN1c2ccccc2C=C(C(=O)c2ccccc2)C1c1ccccc1 (stereo not given)
T/C (dose: 50.0 mg/kg/injection, schedule: Q01DX001 (ip), vehicle: saline): 100 % of control | T/C [8]: 102 % of control | T/C [9]: 97 % of control
